Source: PMC11110727, “Exploiting thiol-functionalized benzosiloxaboroles for achieving diverse substitution patterns – synthesis, characterization and biological evaluation of promising antibacterial agents” (RSC Medicinal Chemistry, 2024)
In brackets after ≈: the same amount, converted by molar mass.

Experiments:
[1] = test system: Human normal lung fibroblasts MRC-5; experiment: MTT-based viability (cytotoxicity) assay; conditions: MRC-5, MTT, 48 h
Procedure: To evaluate the cytotoxic effect of the tested compounds, an MTT-based assay was performed. […] Moreover, based on available IC50 and MIC (for standard and clinical S. aureus MRSA strains) values, the selectivity index (SI) was calculated for several compounds as the IC50/MIC ratio (Table 5).[60]
MRC-5 pd30 human fibroblasts (ECACC) were cultured in MEME, Minimum Essential Medium Eagle (Merck), supplemented with 10% fetal bovine serum (Merck), 2 mM L-glutamine, antibiotics (100 U mL^−1 penicillin, 100 μg mL^−1 streptomycin, Merck) and 1% non-essential amino acids (Merck). Cells were grown in 75 cm^2 cell culture flasks (Sarstedt), in a humidified atmosphere of CO2/air (5/95%) at 37 °C. MTT-based viability assay was conducted as described previously.[26] Optical densities were measured at 570 nm using a BioTek microplate reader. All measurements were carried out in three replicates and the results expressed as a percent of viable cells versus control cells. […] The selectivity index (SI) was calculated as [drawing 30] , in accordance with previously described protocols.[60]

[2] = test system: C. tropicalis ATCC 750; experiment: Antifungal activity: MIC/MFC, disc-diffusion; format: cell-based
Procedure: (§1) Direct antimicrobial activity was determined against the following standard strains: (1) Gram-positive cocci: methicillin-sensitive Staphylococcus aureus ATCC 6538P (MSSA), methicillin-resistant S. aureus subsp. aureus ATCC 43300 (MRSA), S. epidermidis ATCC 12228, Enterococcus faecium ATCC 6057, E. faecalis ATCC 29212, Bacillus subtilis ATCC 6633; (2) Gram-negative bacteria from Enterobacteriales order: Klebsiella pneumoniae ATCC 13883, Escherichia coli ATCC 25922, Enterobacter cloacae DSM 6234, Proteus mirabilis ATCC 12453, Serratia marcescens ATCC 13880; (3) Gram-negative non-fermentative rods: Acinetobacter baumannii ATCC 19606, Pseudomonas aeruginosa ATCC 27853, Stenotrophomonas maltophilia ATCC 12714, S. maltophilia ATCC 13637, Burkholderia cepacia ATCC 25416, Bordetella bronchiseptica ATCC 4617; (4) yeasts: Candida albicans ATCC 90028, C. krusei ATCC 6258, C. parapsilosis ATCC 22019, C. tropicalis (Castellani) Berkhout ATCC 750, C. tropicalis IBA 171, C. guilliermondii IBA 155, and Saccharomyces cerevisiae ATCC 9763. Moreover, 5 clinical strains of methicillin-resistant S. aureus were also included: NMI 664 K, NMI 1576 K, NMI 1712 K, NMI 1991 K, and NMI 2541 K. All strains were stored at −80 °C. Prior to testing, each bacterial strain was subcultured twice on tryptic soy agar TSA (bioMerieux) medium and yeast strains on Sabouraud dextrose agar (bioMerieux) for 24–48 h at 30 °C to ensure viability. The antimicrobial activity was evaluated as previously described[26] by the disc-diffusion method and the MIC determination assays according to the EUCAST (ref. [71] and [72]) and CLSI (ref. [53] and [73]) recommendations. Assessment of bactericidal (MBC) and fungicidal (MFC) activities was performed according to the CLSI recommendations.[54,74] The following reference agents were used: fluconazole (in the case of fungi), linezolid (for Gram-positive bacteria), and nitrofurantoin (for Gram-negative rods). The new benzosiloxaboroles were dissolved in DMSO (Sigma).

[3] = test system: C. tropicalis IBA 171; experiment: Antifungal activity: MIC/MFC, disc-diffusion; format: cell-based
Procedure: as §1

[4] = test system: C. guilliermondii IBA 155; experiment: Antifungal activity: MIC/MFC, disc-diffusion; format: cell-based
Procedure: as §1

[5] = test system: C. parapsilosis ATCC 22019; experiment: Antifungal activity: MIC/MFC, disc-diffusion; format: cell-based
Procedure: as §1

[6] = test system: C. krusei ATCC 6258; experiment: Antifungal activity: MIC/MFC, disc-diffusion; format: cell-based
Procedure: as §1, with “The following reference agents were used: fluconazole (in the case of fungi), linezolid (for Gram-positive bacteria), and nitrofurantoin (for Gram-negative rods).” left out

[7] = test system: S. cerevisiae ATCC 9763; experiment: Antifungal activity: MIC/MFC, disc-diffusion; format: cell-based, Saccharomyces cerevisiae
Procedure: as §1

[8] = test system: C. albicans ATCC 90028; experiment: Antifungal activity: MIC/MFC, disc-diffusion; format: cell-based, Candida albicans
Procedure: as §1

[9] = test system: P. mirabilis ATCC 12453; experiment: Antibacterial activity: MIC/MBC, MIC with PAβN, disc-diffusion; format: cell-based, Proteus mirabilis; conditions: P. mirabilis ATCC 12453
Procedure: as §1, with “The following reference agents were used: fluconazole (in the case of fungi), linezolid (for Gram-positive bacteria), and nitrofurantoin (for Gram-negative rods).” left out
(§2) Considering that the MDR efflux pumps often contribute to Gram-negative rod resistance, the MIC values of studied agents, with or without the pump inhibitor, PAβN (20 μg mL^−1) (Sigma), were determined.[75] The MIC was determined using Mueller–Hinton II broth medium (MHB) (Becton Dickinson) by the broth microdilution method, according to the CLSI guideliness.[53] To minimize the influence of PAβN on the destabilization of bacterial cell covers, the tests were conducted in the presence of 1 mM MgSO4 (Sigma).[76] At least a 4-fold reduction in the MIC value after the addition of PAβN was considered significant.[56,77]

[10] = test system: B. bronchiseptica ATCC 4617; experiment: Antibacterial activity: MIC/MBC, disc-diffusion; format: cell-based, Bordetella bronchiseptica; conditions: Bordetella bronchiseptica, ATCC4617, B. bronchiseptica ATCC 4617
Procedure: as §1, with “The following reference agents were used: fluconazole (in the case of fungi), linezolid (for Gram-positive bacteria), and nitrofurantoin (for Gram-negative rods).” left out
as §2

[11] = test system: B. cepacia ATCC 25416; experiment: Antibacterial activity: MIC/MBC, disc-diffusion; format: cell-based, Burkholderia cepacia; conditions: B. cepacia ATCC 25416
Procedure: as §1, with “The following reference agents were used: fluconazole (in the case of fungi), linezolid (for Gram-positive bacteria), and nitrofurantoin (for Gram-negative rods).” left out
as §2

[12] = test system: S. maltophilia ATCC 12714; experiment: Antibacterial activity: MIC/MBC, MIC with PAβN, disc-diffusion; format: cell-based, Stenotrophomonas maltophilia; conditions: Stenotrophomonas maltophilia, ATCC12714, S. maltophilia ATCC 12714
Procedure: as §1, with “The following reference agents were used: fluconazole (in the case of fungi), linezolid (for Gram-positive bacteria), and nitrofurantoin (for Gram-negative rods).” left out
as §2

[13] = test system: S. maltophilia ATCC 13637; experiment: as above; format: cell-based, Stenotrophomonas maltophilia; conditions: Stenotrophomonas maltophilia, ATCC13637, S. maltophilia ATCC 13637
Procedure: as §1, with “The following reference agents were used: fluconazole (in the case of fungi), linezolid (for Gram-positive bacteria), and nitrofurantoin (for Gram-negative rods).” left out
as §2

[14] = test system: K. pneumoniae ATCC 13883; experiment: as above; format: cell-based, Klebsiella pneumoniae; conditions: K. pneumoniae ATCC 13883
Procedure: as §1, with “The following reference agents were used: fluconazole (in the case of fungi), linezolid (for Gram-positive bacteria), and nitrofurantoin (for Gram-negative rods).” left out
as §2

[15] = test system: P. aeruginosa ATCC 27853; experiment: as above; format: cell-based; conditions: Pseudomonas aeruginosa, ATCC27853, P. aeruginosa ATCC 27853
Procedure: as §1, with “The following reference agents were used: fluconazole (in the case of fungi), linezolid (for Gram-positive bacteria), and nitrofurantoin (for Gram-negative rods).” left out
as §2

[16] = test system: E. coli ATCC 25922; experiment: as above; format: cell-based, Escherichia coli; conditions: E. coli ATCC 25922
Procedure: as §1, with “The following reference agents were used: fluconazole (in the case of fungi), linezolid (for Gram-positive bacteria), and nitrofurantoin (for Gram-negative rods).” left out
as §2

[17] = test system: A. baumannii ATCC 19606; experiment: as above; format: cell-based, Acinetobacter baumannii; conditions: A. baumannii ATCC 19606
Procedure: as §1, with “The following reference agents were used: fluconazole (in the case of fungi), linezolid (for Gram-positive bacteria), and nitrofurantoin (for Gram-negative rods).” left out
as §2

[18] = test system: S. marcescens ATCC 13880; experiment: as above; format: cell-based, Serratia marcescens; conditions: S. marcescens ATCC 13880
Procedure: as §1, with “The following reference agents were used: fluconazole (in the case of fungi), linezolid (for Gram-positive bacteria), and nitrofurantoin (for Gram-negative rods).” left out
as §2

[19] = test system: E. cloacae DSM 6234; experiment: as above; format: cell-based, Enterobacter cloacae; conditions: E. cloacae DSM 6234
Procedure: as §1, with “The following reference agents were used: fluconazole (in the case of fungi), linezolid (for Gram-positive bacteria), and nitrofurantoin (for Gram-negative rods).” left out
as §2

[20] = (-) = zone not observed, paper discs 9 mm

N.N.[Cl][Pt][Cl] [Cisplatin, reference compound]
IC50 [1]: 1.9 µg/mL

OC(Cn1cncn1)(Cn1cncn1)c1ccc(F)cc1F [FL, fluconazole, reference compound]
diameter of inhibition zone ([2]; C. tropicalis ATCC 750, (-) = zone not observed, paper discs 9 mm): 40 mm | MIC ([2]; Candida tropicalis, ATCC750, read-out: MIC): 0.38 µg/mL (≈ 1.24 µM) | diameter of inhibition zone ([3]; C. tropicalis IBA 171, (-) = zone not observed, paper discs 9 mm): 39 mm | MIC ([3]; Candida tropicalis, IBA171, read-out: MIC): 0.38 µg/mL (≈ 1.24 µM) | diameter of inhibition zone ([4]; C. guilliermondii IBA 155, (-) = zone not observed, paper discs 9 mm): 40 mm | MIC ([4]; Meyerozyma guilliermondii, IBA155, read-out: MIC): 0.75 µg/mL (≈ 2.45 µM) | diameter of inhibition zone ([5]; C. parapsilosis ATCC 22019, (-) = zone not observed, paper discs 9 mm): 32 mm | MIC ([5]; Lodderomyces parapsilosis, ATCC22019, read-out: MIC): 2 µg/mL (≈ 6.53 µM) | diameter of inhibition zone ([6]; C. krusei ATCC 6258, (-) = zone not observed, paper discs 9 mm): 16 mm | MIC ([6]; Pichia kudriavzevii, ATCC6258, read-out: MIC): 64 µg/mL (≈ 209 µM) | diameter of inhibition zone ([7]; S. cerevisiae ATCC 9763, (-) = zone not observed, paper discs 9 mm): 12 mm | MIC ([7]; Saccharomyces cerevisiae, ATCC9763, read-out: MIC): 16 µg/mL (≈ 52.2 µM) | diameter of inhibition zone ([8]; C. albicans ATCC 90028, (-) = zone not observed, paper discs 9 mm): 43 mm | MIC ([8]; Candida albicans, ATCC90028, read-out: MIC): 1 µg/mL (≈ 3.27 µM)

O=C1CN(/N=C/c2ccc([N+](=O)[O-])o2)C(=O)N1 [NF, nitrofurantoin, reference compound]
diameter of inhibition zone [9, 20]: 9 mm | MBC ([9]; Proteus mirabilis, ATCC12453): > 128 µg/mL | MIC ([9]; Proteus mirabilis, ATCC12453, read-out: MIC): 128 µg/mL (≈ 537 µM) | MBC [10]: 128 µg/mL (≈ 537 µM) | MIC ([10]; read-out: MIC): 64 µg/mL (≈ 269 µM) | diameter of inhibition zone [11, 20]: 12 mm | MBC ([11]; Burkholderia cepacia, ATCC25416): 32 µg/mL (≈ 134 µM) | MIC ([11]; Burkholderia cepacia, ATCC25416, read-out: MIC): 32 µg/mL (≈ 134 µM) | MBC [12]: > 128 µg/mL | MIC ([12]; read-out: MIC): 128 µg/mL (≈ 537 µM) | MBC [13]: > 128 µg/mL | MIC ([13]; read-out: MIC): 128 µg/mL (≈ 537 µM) | diameter of inhibition zone [14, 20]: 23 mm | MBC ([14]; Klebsiella pneumoniae, ATCC13883): 32 µg/mL (≈ 134 µM) | MIC ([14]; Klebsiella pneumoniae, ATCC13883, read-out: MIC): 32 µg/mL (≈ 134 µM) | MBC [15]: > 128 µg/mL | MIC ([15]; read-out: MIC): > 128 µg/mL | diameter of inhibition zone [16, 20]: 24 mm | MBC ([16]; Escherichia coli, ATCC25922): 8 µg/mL (≈ 33.6 µM) | MIC ([16]; Escherichia coli, ATCC25922, read-out: MIC): 8 µg/mL (≈ 33.6 µM) | diameter of inhibition zone [17, 20]: 9 mm | MBC ([17]; Acinetobacter baumannii, ATCC19606): 128 µg/mL (≈ 537 µM) | MIC ([17]; Acinetobacter baumannii, ATCC19606, read-out: MIC): 64 µg/mL (≈ 269 µM) | diameter of inhibition zone [18, 20]: 12 mm | MBC ([18]; Serratia marcescens, ATCC13880): > 128 µg/mL | MIC ([18]; Serratia marcescens, ATCC13880, read-out: MIC): 128 µg/mL (≈ 537 µM) | diameter of inhibition zone [19, 20]: 17 mm | MBC ([19]; Enterobacter cloacae, DSM6234): 32 µg/mL (≈ 134 µM) | MIC ([19]; Enterobacter cloacae, DSM6234, read-out: MIC): 32 µg/mL (≈ 134 µM)
